Here are results for one molecule from patent US20230201203A1, “METHODS OF TREATMENT USING A[…] PHARMACEUTICAL FORMULATIONS COMPRISING ANTIFOLATES” (EMPHASCIENCE, INC., priority 2020, published 2023).

A value given as a limit tells only on which side of the number the result lay.

The nature of this series: in vitro. Particulars: human.

`Nc1nc2[nH]cc(CCc3ccc(C(=O)N[C@@H](CCC(=O)O)C(=O)O)cc3)c2c(=O)[nH]1` [pemetrexed] displayed a CC50 of at least 74 µg/mL.
